PubChem BioAssay (NCI)
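Protocol summary: plate cells (96-well), add compound at 5 concentrations, incubate 48 h, interpolate endpoints linearly. GI50: concentration for 50% inhibition of growth. TGI: total growth inhibition.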

How the values were obtained:
Experiment in all cases: DTP human tumour cell line panel, 48 h
ACHN renal = tested on: ACHN renal
SF-268 CNS = tested on: SF-268 CNS
HL-60(TB) leukemia = tested on: HL-60(TB) leukemia
SK-MEL-28 melanoma = tested on: SK-MEL-28 melanoma
OVCAR-4 ovarian = tested on: OVCAR-4 ovarian
TK-10 renal = tested on: TK-10 renal
786-0 renal = tested on: 786-0 renal
HCT-116 colon = tested on: HCT-116 colon
T-47D breast = tested on: T-47D breast
MCF7 breast = tested on: MCF7 breast

Row | SMILES | TGI (ACHN renal) [µM] | TGI (SF-268 CNS) [µM] | TGI (HL-60(TB) leukemia) [µM] | TGI (SK-MEL-28 melanoma) [µM] | TGI (OVCAR-4 ovarian) [µM] | TGI (TK-10 renal) [µM] | TGI (786-0 renal) [µM] | TGI (HCT-116 colon) [µM] | TGI (T-47D breast) [µM] | TGI (MCF7 breast) [µM] | GI50 (ACHN renal) [µM] | GI50 (SF-268 CNS) [µM] | GI50 (HL-60(TB) leukemia) [µM] | GI50 (OVCAR-4 ovarian) [µM]
1 | Cc1ccc2c(=O)cc(-c3ccc(Cl)s3)[nH]c2n1 | > 100 | > 81.6 | 0.989 | > 100 | > 100 | > 100 | > 80.4 | > 55.3 | > 100 | > 100 |  |  |  | 
2 | Nc1ccc(S(=O)(=O)c2ccc(NCN3C(=O)NC(=O)C(=O)C3=O)cc2)cc1 | > 100 | > 100 |  | > 100 | > 100 | > 100 | > 100 | > 100 | > 100 |  |  |  |  | 
3 | Cc1csc(NC23CC4CC(CC(C4)C2)C3)[n+]1C(P(=O)([O-])O)P(=O)(O)O (centres undefined) | > 100 | > 100 |  | > 100 |  | > 100 | > 100 | > 100 |  | > 100 |  |  |  | 
4 | CC(=C(c1ccccc1)c1ccccc1)N1C(=O)CC(=O)N1C | > 100 | > 100 |  | > 100 | 79.5 | > 100 |  | > 100 | > 100 | > 100 |  |  |  | 
5 | NS(=O)(=O)c1ccc(/C=C/c2ccc(F)cc2)cc1 | 19.4 | > 100 | > 100 | > 100 | > 100 | > 100 | 41.2 | 50.3 | 57.6 | > 100 | 2.97 | 20.5 | 37.3 | 34.4
6 | COc1cc2ccc(=O)oc2cc1O |  | > 585 | 271 | > 625 | > 172 |  |  | > 625 |  | 476 |  |  |  | 
7 | CCNC(=S)N=Nc1c(O)[nH]c2ccc([N+](=O)[O-])cc12 | > 100 | > 100 | > 100 | > 100 | > 100 | > 100 | 69 | > 100 | > 100 | > 100 |  |  |  | 
8 | O=c1cc(N2CCCC2)[nH]c(=O)n1Cc1ccccc1 | > 100 |  | > 100 | > 100 | > 100 | > 100 | > 100 | > 100 |  | > 100 |  |  |  | 
9 | CCOC(=O)CCC(NC(=O)OCc1ccccc1)C(=O)NC(CCC(=O)OCC)C(=O)NC(CCC(=O)OCC)C(=O)NC(CCC(=O)OCC)C(=O)NC(CCC(=O)OCC)C(=O)NC(CCC(=O)OCC)C(=O)NC(CCC(=O)OCC)C(=O)OCC (centres undefined) | > 100 | > 100 | > 100 | > 100 | > 100 | > 100 | > 100 | > 100 | > 100 | > 100 |  |  |  | 
10 | COC(OC)[C@@H]1OC[C@H](n2cnc3c(N)ncnc32)[C@H]1O | > 100 | > 100 |  | > 100 | > 100 | > 100 | > 100 | > 100 | > 100 |  |  |  |  | 
11 | CC(=O)N1CC(C)(C)c2c(C)c(O)c(C)c(C)c21 | > 100 | > 100 | > 100 | > 100 | > 100 | > 100 | > 100 | > 100 | > 100 | > 100 |  |  |  | 
12 | O=C1C[C@@H](C(=O)OCc2ccccc2)NC(=O)C[C@@H](C(=O)OCc2ccccc2)NC(=O)C[C@@H](C(=O)OCc2ccccc2)N1 | > 62.9 | 85.8 | 9.88 | > 100 | > 100 | 73.6 | > 100 | > 100 | > 100 | > 100 |  |  |  | 
13 | CC(NC(=O)C(NC(=O)CNC(=O)OC(C)(C)C)C(C)C)C(=O)Oc1c(Cl)c(Cl)c(Cl)c(Cl)c1Cl (centres undefined) | 58.9 | 65.2 | > 100 | 71.8 | 60.9 | 77.2 |  | 31.2 | 62.4 | 74.1 |  |  |  | 
14 | Cc1ccc(/C(O)=C/c2nc3ccccc3sc2=O)c(C)c1 | > 100 | > 100 | 69.6 | > 100 | 70.8 | > 100 | > 100 | > 100 | > 100 | > 100 |  |  |  | 
15 | O=[N+]([O-])c1ccc2sc(C=Nc3cnccn3)cc2c1 | > 100 | > 100 | 43.8 | > 100 |  | > 100 | > 100 | > 100 | 28 | > 100 |  |  |  | 
16 | NCCCN(CCCN(C(=O)Nc1ccccc1)c1ccccc1)C(=O)Nc1ccccc1 | > 100 | > 100 | 66.1 | 34.1 |  | > 100 | > 100 | > 100 | 79.3 | > 100 |  |  |  | 
17 | Cc1ccc(OCC2OC(n3cnc4nc(N)nc(Cl)c43)CC2Oc2ccc(C)cc2)cc1 (centres undefined) | 35 | 44.6 |  | > 100 | > 100 | > 100 | > 100 | > 100 | 34.7 | 49 |  |  |  | 
18 | OC1(c2ccccc2)CCN(Cc2c[nH]c3ccccc23)CC1 | > 100 | > 100 | > 100 | 56.9 | > 100 | > 100 | > 100 | > 100 | > 100 | > 100 |  |  |  | 
19 | COc1c(O)c(C=O)c2c(O)c(-c3c(C)cc4c(C(C)C)c(OC)c(O)c(C=O)c4c3O)c(C)cc2c1C(C)C | 8.05 | 23.5 | 41.4 | 22.7 | 14 | 19.3 |  | 5.39 |  |  |  |  |  | 
20 | COc1ccc(CC(N)c2ccc(OC)cc2)cc1 (centres undefined) | > 100 | > 100 | > 100 | > 100 | > 100 | > 100 | > 100 | > 100 | > 100 | > 100 |  |  |  | 
21 | C=C/C(C)=C\CC1[C@](C)(O)CC[C@H]2C(C)(C)C(=O)CC[C@]12C (some centres undefined) | > 100 | > 100 | 60 | > 100 | > 100 | > 100 | > 100 | > 100 |  | > 100 |  |  |  | 
22 | CC1(C)N/C(=C\C=O)C(C)(C)N1O | > 100 | > 100 | > 100 | > 100 | > 100 | > 100 |  | > 100 |  | > 100 |  |  |  | 
